Measurements: patent US20230117592A1 (SRI International, priority 2019, published 2023)
pIC50: −log10 of the molar value. Where “and” joins values, the source holds several entries; their conditions need not be identical. Equal entries are not always repeated. Where two headings read alike, the source gives them in different places.

Tests used:
[1] = molecular target: T1, 5-LOX (Homo sapiens, UniProt P09917); test: 5-LOX fluorescent assay (in vitro lipoxygenase inhibition); type: biochemical; details: recombinant 5-LOX cell lysate, 20 μM AA, DHR123 fluorescence; several values in a cell = repeat determinations; read-out: IC50 (μM) values for in vitro lipoxygenase inhibition, 5-LOX
T1 sequence (P09917 1-674): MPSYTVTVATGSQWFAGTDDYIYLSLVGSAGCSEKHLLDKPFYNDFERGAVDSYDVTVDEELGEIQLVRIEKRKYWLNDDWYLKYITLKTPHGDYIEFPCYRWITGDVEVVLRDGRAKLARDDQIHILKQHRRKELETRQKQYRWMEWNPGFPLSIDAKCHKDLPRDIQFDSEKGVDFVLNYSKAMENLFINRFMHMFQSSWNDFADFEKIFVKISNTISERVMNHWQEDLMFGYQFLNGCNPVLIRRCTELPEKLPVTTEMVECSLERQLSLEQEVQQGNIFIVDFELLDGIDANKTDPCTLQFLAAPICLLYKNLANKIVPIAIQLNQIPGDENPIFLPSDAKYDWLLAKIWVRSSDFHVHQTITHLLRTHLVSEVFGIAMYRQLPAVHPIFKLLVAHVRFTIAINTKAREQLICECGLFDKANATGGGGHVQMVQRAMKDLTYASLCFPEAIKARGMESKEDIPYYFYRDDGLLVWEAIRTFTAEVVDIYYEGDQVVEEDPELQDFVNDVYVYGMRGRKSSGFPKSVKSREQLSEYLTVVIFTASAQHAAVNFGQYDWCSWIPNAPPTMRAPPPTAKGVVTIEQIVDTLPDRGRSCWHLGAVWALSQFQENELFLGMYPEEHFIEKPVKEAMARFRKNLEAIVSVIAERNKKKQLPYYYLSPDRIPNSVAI
Method: 5-LOX FI assay Fluorescent Assay
The enzyme assay (100 μL) contained 50 mM Tris, pH 7.5, 0.1 mM EDTA, 0.3 mM CaCl2, 20 μM AA, 100 μM ATP, 1 μM DHR123, and recombinant 5-LOX cell lysate (0.5 μL/100 μL). Inhibitors (dissolved in DMSO) were plated at 1 μL into 96-well assay microplates followed by a 40 μL addition of a solution containing 5-LOX enzyme. Enzyme was pre-incubated with compounds for 15 mins. The assay was initiated by the addition of a 40 μL substrate solution containing AA and ATP, and 20 μL addition of a solution containing DHR123. […] Percent inhibition was calculated for each compound dose for IC50 curve fitting using 4 Parameter Logistic Model or Sigmoidal Dose-Response Model.

[2] = molecular target: T2, 12-LOX (Homo sapiens, UniProt P18054); test: 12-LOX fluorescent assay (in vitro lipoxygenase inhibition); type: biochemical; details: for IC50: 100 nM recombinant 12-LOX, 20 μM AA, DHR123 fluorescence, several values in a cell = repeat determinations, read-out: IC50 (μM) values for in vitro lipoxygenase inhibition, 12-LOX
T2 sequence (P18054 1-663): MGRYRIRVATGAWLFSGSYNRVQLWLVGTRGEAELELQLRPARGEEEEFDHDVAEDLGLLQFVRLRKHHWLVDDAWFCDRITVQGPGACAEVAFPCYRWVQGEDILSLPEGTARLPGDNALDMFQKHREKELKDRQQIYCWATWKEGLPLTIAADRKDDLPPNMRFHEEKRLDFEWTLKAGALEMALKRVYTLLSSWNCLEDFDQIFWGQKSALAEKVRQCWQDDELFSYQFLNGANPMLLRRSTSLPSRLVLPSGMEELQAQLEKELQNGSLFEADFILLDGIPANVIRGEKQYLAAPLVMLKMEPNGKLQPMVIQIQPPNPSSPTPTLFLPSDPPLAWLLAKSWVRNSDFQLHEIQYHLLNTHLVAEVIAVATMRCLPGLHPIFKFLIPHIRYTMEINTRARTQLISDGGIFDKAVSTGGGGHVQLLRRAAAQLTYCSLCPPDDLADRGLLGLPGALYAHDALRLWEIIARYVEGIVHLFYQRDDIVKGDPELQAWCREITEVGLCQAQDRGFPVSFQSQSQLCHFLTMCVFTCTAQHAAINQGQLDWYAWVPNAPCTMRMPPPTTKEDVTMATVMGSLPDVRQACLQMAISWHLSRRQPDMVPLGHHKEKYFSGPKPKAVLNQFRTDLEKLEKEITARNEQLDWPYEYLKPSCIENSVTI
Method: 12-LOX/15-LOX Fluorescent Assay
The enzyme assay (100 ul) contained 50 mM Tris, pH 7.5, 0.05% Tween-20, 20 μM AA/LA, 1 μM DHR123, and 100 nM recombinant 12-LOX enzyme/50 nM recombinant 15-LOX enzyme. Inhibitors (dissolved in DMSO) were plated at 1 μL into 96-well assay microplates followed by a 40 μL addition of a solution containing 12-LOX/15-LOX enzyme. Enzyme was pre-incubated with compounds for 15 mins. The assay was initiated by the addition of a 40 μL substrate solution containing AA/LA, and 20μL addition of a solution containing DHR123. […] Percent inhibition was calculated for each compound dose for IC50 curve fitting using 4 Parameter Logistic Model or Sigmoidal Dose-Response Model.

| SMILES | IC50 [1] | IC50 [2] | pIC50 [2] |
| --- | --- | --- | --- |
| Fc1ccc(Nc2ccc(NCC3(CN4CCOCC4)COC3)c(C(F)(F)F)c2)cc1 | 0.06 µM | 0.04 µM |  |
| COc1ccc(CNc2cccc(N)c2OCCN(C)C)cc1 [SS20308-0025-01, 2-(2-(dimethylamino)ethoxy)-N^1-(4-methoxybenzyl)benzene-1,3-diamine] | 7.31 µM | 1.29 µM |  |
| CCOC(=O)c1ccc(Nc2ccccc2OCCn2cncn2)cc1 [SS20308-0033-01, ethyl 4-(2-(2-(1H-1,2,4-triazol-1-yl)ethoxy)phenylamino)benzoate] | 50.3 µM | 23.9 µM |  |
| COc1ccc(CNc2cccc(Nc3ccccc3)c2OCCN(C)C)cc1 [SS20308-0052-01, 2-(2-(dimethylamino)ethoxy)-N^1-(4-methoxybenzyl)-N^3-phenylbenzene-1,3-diamine] | 1.32 µM | 0.62 µM |  |
| COc1ccc(CNc2ccc3c(-c4ccccc4)cc(=O)[nH]c3c2OCCN(C)C)cc1 [SS20308-0053-01, 8-(2-(dimethylamino)ethoxy)-7-((4-methoxybenzyl)amino)-4-phenylquinolin-2(1H)-one] | 3.36 µM | 5.2 µM |  |
| CCOC(=O)c1ccc(Nc2cccc(Nc3ccccc3)c2OCCn2cncn2)cc1 [SS20308-0055-01, ethyl 4-(2-(2-(1H-1,2,4-triazol-1-yl)ethoxy)-3-(phenylamino)phenylamino)benzoate] | 3.33 µM | 1.64 µM |  |
| CN(C)CCOc1c(NCc2ccccc2)cccc1Nc1ncccc1Cl [SS20308-0071-01, N^1-benzyl-N^3-(3-chloropyridin-2-yl)-2-(2-(dimethylamino)ethoxy)benzene-1,3-diamine] | 5.73 µM | 4.9 µM |  |
| CN(C)CCOc1c(Nc2ccccc2)ccc2c(-c3ccccc3)cc(=O)[nH]c12 [SS20308-0072-01, 8-(2-(dimethylamino)ethoxy)-4-phenyl-7-(phenylamino)quinolin-2(1H)-one] | 7.23 µM | 3.37 µM |  |
| c1ccc(Nc2ccc(-c3ccccc3)c(NCCn3cncn3)c2)cc1 [SS20308-0095-01, N^2-(2-(1H-1,2,4-triazol-1-yl)ethyl)-N^4-phenylbiphenyl-2,4-diamine] | 0.35 µM |  | 6.74 |
| CN(C)CCNc1cc(Nc2ccccc2)ccc1-c1ccccc1 [SS20308-0130-01, N2-(2-(dimethylamino)ethyl)-N4-phenyl-[1,1′-biphenyl]-2,4-diamine] | 0.24 µM | 0.25 µM |  |
| c1ccc(Nc2ccc(-c3ccccc3)c(OCCn3cncn3)c2)cc1 [SS20308-0132-01, 2-(2-(1H-1,2,4-triazol-1-yl)ethoxy)-N-phenyl-[1,1′-biphenyl]-4-amine] | 0.6 µM |  | 6.31 |
| Cc1cccc(C)c1-c1ccc(Nc2ccccc2)cc1NCCn1cncn1 [SS20308-0133-01, N2-(2-(1H-1,2,4-triazol-1-yl)ethyl)-2′,6′-dimethyl-N4-phenyl-[1,1′-biphenyl]-2,4-diamine] | 0.22 µM | 0.14 µM |  |
| Fc1c(Nc2ccccc2)ccc(-c2ccccc2)c1NCCn1cncn1 [SS20308-0148-01, N^2-(2-(1H-1,2,4-triazol-1-yl)ethyl)-3-fluoro-N^4-phenylbiphenyl-2,4-diamine] | 3.77 µM and 0.76 µM |  |  |
| c1ccc(Nc2ccc(NCCCn3cncn3)c(-c3ccccc3)c2)cc1 [SS20308-0151-01, N^2-(3-(1H-1,2,4-triazol-1-yl)propyl)-N^5-phenylbiphenyl-2,5-diamine] | 0.07 µM and 0.04 µM |  | 7.70 |
| Cc1cc(Nc2ccc(F)cc2Cl)ccc1NCC1(CN2CCCC2)COC1 [SS20308-0310-01, N^4-(2-chloro-4-fluorophenyl)-2-methyl-N^1-((3-(pyrrolidin-1-ylmethyl)oxetan-3-yl)methyl)benzene-1,4-diamine] | 0.11 µM and 0.14 µM and 0.1 µM and 0.19 µM and 0.29 µM |  |  |

Second part, led by results:

| IC50 [1] | IC50 [2] | SMILES | pIC50 [2] |
| --- | --- | --- | --- |
| 0.55 µM | 0.24 µM | c1ccc(CNc2ccc(-c3ccccc3)c(NCCn3cncn3)c2)cc1 [SS20308-0096-01, N^2-(2-(1H-1,2,4-triazol-1-yl)ethyl)-N^4-benzyl-[1,1′-biphenyl]-2,4-diamine] |  |
| 0.25 µM |  | CN(CCn1cncn1)c1cc(Nc2ccccc2)ccc1-c1ccccc1 [SS20308-0131-01, N2-(2-(1H-1,2,4-triazol-1-yl)ethyl)-N2-methyl-N4-phenyl-[1,1′-biphenyl]-2,4-diamine] |  |
| 2.32 µM | 1.49 µM | O=C(CCn1cncn1)Nc1cc(Nc2ccccc2)ccc1-c1ccccc1 [SS20308-0134-01, N-(4-(phenylamino)-[1,1′-biphenyl]-2-yl)-3-(1H-1,2,4-triazol-1-yl)propanamide] |  |
| 25.7 µM | 20.8 µM | O=C(Nc1ccc(-c2ccccc2)c(NCCn2cncn2)c1)c1ccccc1 [SS20308-0135-01, N-(2-((2-(1H-1,2,4-triazol-1-yl)ethyl)amino)-[1,1′-biphenyl]-4-yl)benzamide] |  |
| 0.18 µM and 0.34 µM | 0.09 µM and 0.17 µM | Fc1ccc(Nc2ccc(-c3ccccc3)c(NCCn3cncn3)c2)cc1 [SS20308-0142-01, N^2-(2-(1H-1,2,4-triazol-1-yl)ethyl)-N^4-(4-fluorophenyl)biphenyl-2,4-diamine] |  |
| 0.94 µM | 0.33 µM | OCc1ccccc1-c1ccc(Nc2ccccc2)cc1NCCn1cncn1 [SS20308-0143-01, (2′-(2-(1H-1,2,4-triazol-1-yl)ethylamino)-4′-(phenylamino)biphenyl-2-yl)methanol] |  |
| 0.4 µM | 0.18 µM | COc1ccccc1-c1ccc(Nc2ccccc2)cc1NCCn1cncn1 [SS20308-0144-01, N^2-(2-(1H-1,2,4-triazol-1-yl)ethyl)-2′-methoxy-N^4-phenylbiphenyl-2,4-diamine] |  |
| 30 nM and 50 nM (2×) | 0.02 µM | c1ccc(CNc2ccc(NCCn3cncn3)c(-c3ccccc3)c2)cc1 [SS20308-0145-01, N^2-(2-(1H-1,2,4-triazol-1-yl)ethyl)-N^5-benzyl-[1,1′-biphenyl]-2,5-diamine] |  |
| 3.77 µM | 4.02 µM | O=C(Nc1ccc(NCCn2cncn2)c(-c2ccccc2)c1)c1ccccc1 [SS20308-0146-01, N-(6-((2-(1H-1,2,4-triazol-1-yl)ethyl)amino)-[1,1′-biphenyl]-3-yl)benzamide] |  |
| 0.17 µM | 0.14 µM | Clc1ccc(-c2ccc(Nc3ccccc3)cc2NCCn2cncn2)cc1 [SS20308-0147-01, N^2-(2-(1H-1,2,4-triazol-1-yl)ethyl)-4′-chloro-N^4-phenylbiphenyl-2,4-diamine] |  |
| 0.63 µM | 0.3 µM | OCCc1ccccc1-c1ccc(Nc2ccccc2)cc1NCCn1cncn1 [SS20308-0149-01, 2-(2′-(2-(1H-1,2,4-triazol-1-yl)ethylamino)-4′-(phenylamino)biphenyl-2-yl)ethanol] |  |
| 0.71 µM | 0.2 µM | c1ccc(Nc2cccc(-c3ccccc3)c2NCCn2cncn2)cc1 [SS20308-0153-01, N^2-(2-(1H-1,2,4-triazol-1-yl)ethyl)-N^3-phenylbiphenyl-2,3-diamine] |  |
